Test results taken from PubChem BioAssay (NCI).
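In this assay, cells in 96-well plates receive the compound at five concentrations for 48 hours. Endpoints are linearly interpolated between the surrounding concentrations. TGI denotes the concentration required for complete inhibition of growth.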

Tests used:
Assay in all cases: DTP human tumour cell line panel, 48 h
786-0 renal = tested on: 786-0 renal
A498 renal = tested on: A498 renal
A549 NSCLC = tested on: A549 NSCLC
ACHN renal = tested on: ACHN renal
CAKI-1 renal = tested on: CAKI-1 renal
CCRF-CEM leukemia = tested on: CCRF-CEM leukemia
COLO 205 colon = tested on: COLO 205 colon
DLD-1 colon = tested on: DLD-1 colon
DMS 114 small cell lung = tested on: DMS 114 small cell lung
DMS 273 small cell lung = tested on: DMS 273 small cell lung
HCC-2998 colon = tested on: HCC-2998 colon
HCT-116 colon = tested on: HCT-116 colon
HCT-15 colon = tested on: HCT-15 colon
HL-60(TB) leukemia = tested on: HL-60(TB) leukemia
HOP-18 NSCLC = tested on: HOP-18 NSCLC
HOP-62 NSCLC = tested on: HOP-62 NSCLC
IGROV1 ovarian = tested on: IGROV1 ovarian
K-562 leukemia = tested on: K-562 leukemia
KM12 colon = tested on: KM12 colon
KM20L2 colon = tested on: KM20L2 colon
LXFL 529 NSCLC = tested on: LXFL 529 NSCLC
M14 melanoma = tested on: M14 melanoma
M19-MEL melanoma = tested on: M19-MEL melanoma
MALME-3M melanoma = tested on: MALME-3M melanoma
MOLT-4 leukemia = tested on: MOLT-4 leukemia
NCI-H226 lung = tested on: NCI-H226 lung
NCI-H460 lung = tested on: NCI-H460 lung
NCI-H522 lung = tested on: NCI-H522 lung
OVCAR-3 ovarian = tested on: OVCAR-3 ovarian
OVCAR-4 ovarian = tested on: OVCAR-4 ovarian
OVCAR-8 ovarian = tested on: OVCAR-8 ovarian
RPMI-8226 leukemia = tested on: RPMI-8226 leukemia
RXF 393 renal = tested on: RXF 393 renal
SF-268 CNS = tested on: SF-268 CNS
SF-539 CNS = tested on: SF-539 CNS
SK-MEL-2 melanoma = tested on: SK-MEL-2 melanoma
SK-MEL-28 melanoma = tested on: SK-MEL-28 melanoma
SK-MEL-5 melanoma = tested on: SK-MEL-5 melanoma
SK-OV-3 ovarian = tested on: SK-OV-3 ovarian
SN12C renal = tested on: SN12C renal
SNB-19 CNS = tested on: SNB-19 CNS
SNB-75 CNS = tested on: SNB-75 CNS
SNB-78 CNS = tested on: SNB-78 CNS
SR leukemia = tested on: SR leukemia
SW-620 colon = tested on: SW-620 colon
TK-10 renal = tested on: TK-10 renal
U251 CNS = tested on: U251 CNS
UACC-257 melanoma = tested on: UACC-257 melanoma
UACC-62 melanoma = tested on: UACC-62 melanoma
UO-31 renal = tested on: UO-31 renal
BT-549 breast = tested on: BT-549 breast
DU-145 prostate = tested on: DU-145 prostate
EKVX NSCLC = tested on: EKVX NSCLC
HOP-92 NSCLC = tested on: HOP-92 NSCLC
HS 578T breast = tested on: HS 578T breast
HT29 colon = tested on: HT29 colon
LOX IMVI melanoma = tested on: LOX IMVI melanoma
MCF7 breast = tested on: MCF7 breast
MDA-MB-231 breast = tested on: MDA-MB-231 breast
MDA-MB-435 = tested on: MDA-MB-435
MDA-N = tested on: MDA-N
NCI-H23 lung = tested on: NCI-H23 lung
NCI/ADR-RES ovarian = tested on: NCI/ADR-RES ovarian
OVCAR-5 ovarian = tested on: OVCAR-5 ovarian
PC-3 prostate = tested on: PC-3 prostate
SF-295 CNS = tested on: SF-295 CNS
T-47D breast = tested on: T-47D breast

Question: How did the TGI (786-0 renal) turn out when `CC1CC(C[N+](=O)[O-])CC2(C1)OCCO2` (centres undefined) was run?
Answer: > 100 µM

Question: And the TGI (A498 renal)?
Answer: > 100 µM

Question: And the TGI (A549 NSCLC)?
Answer: > 100 µM

Question: What about the TGI (ACHN renal) of the same molecule?
Answer: > 100 µM

Question: And the TGI (CAKI-1 renal)?
Answer: > 100 µM

Question: What about the TGI (CCRF-CEM leukemia) of the same molecule?
Answer: > 100 µM

Question: And the TGI (COLO 205 colon)?
Answer: > 100 µM

Question: What about the TGI (DLD-1 colon) of the same molecule?
Answer: > 100 µM

Question: And the TGI (DMS 114 small cell lung)?
Answer: > 100 µM

Question: And the TGI (DMS 273 small cell lung)?
Answer: > 100 µM

Question: What about the TGI (HCC-2998 colon) of the same molecule?
Answer: > 100 µM

Question: What about the TGI (HCT-116 colon) of the same molecule?
Answer: > 100 µM

Question: What about the TGI (HCT-15 colon) of the same molecule?
Answer: > 100 µM

Question: What about the TGI (HL-60(TB) leukemia) of the same molecule?
Answer: > 100 µM

Question: What about the TGI (HOP-18 NSCLC) of the same molecule?
Answer: > 100 µM

Question: And the TGI (HOP-62 NSCLC)?
Answer: > 100 µM

Question: And the TGI (IGROV1 ovarian)?
Answer: > 100 µM

Question: And the TGI (K-562 leukemia)?
Answer: > 100 µM

Question: What about the TGI (KM12 colon) of the same molecule?
Answer: > 100 µM

Question: And the TGI (KM20L2 colon)?
Answer: > 100 µM

Question: And the TGI (LXFL 529 NSCLC)?
Answer: > 100 µM

Question: What about the TGI (M14 melanoma) of the same molecule?
Answer: > 100 µM

Question: And the TGI (M19-MEL melanoma)?
Answer: > 100 µM

Question: And the TGI (MALME-3M melanoma)?
Answer: > 100 µM

Question: What about the TGI (MOLT-4 leukemia) of the same molecule?
Answer: > 100 µM

Question: And the TGI (NCI-H226 lung)?
Answer: > 100 µM

Question: What about the TGI (NCI-H460 lung) of the same molecule?
Answer: > 100 µM

Question: What about the TGI (NCI-H522 lung) of the same molecule?
Answer: > 100 µM

Question: And the TGI (OVCAR-3 ovarian)?
Answer: > 100 µM

Question: What about the TGI (OVCAR-4 ovarian) of the same molecule?
Answer: > 100 µM

Question: What about the TGI (OVCAR-8 ovarian) of the same molecule?
Answer: > 100 µM

Question: And the TGI (RPMI-8226 leukemia)?
Answer: > 100 µM

Question: What about the TGI (RXF 393 renal) of the same molecule?
Answer: > 100 µM

Question: And the TGI (SF-268 CNS)?
Answer: > 100 µM

Question: And the TGI (SF-539 CNS)?
Answer: > 100 µM

Question: And the TGI (SK-MEL-2 melanoma)?
Answer: > 100 µM

Question: And the TGI (SK-MEL-28 melanoma)?
Answer: > 100 µM

Question: And the TGI (SK-MEL-5 melanoma)?
Answer: > 100 µM

Question: And the TGI (SK-OV-3 ovarian)?
Answer: > 100 µM

Question: And the TGI (SN12C renal)?
Answer: > 100 µM

Question: And the TGI (SNB-19 CNS)?
Answer: > 100 µM

Question: And the TGI (SNB-75 CNS)?
Answer: > 100 µM

Question: And the TGI (SNB-78 CNS)?
Answer: > 100 µM

Question: And the TGI (SR leukemia)?
Answer: > 100 µM

Question: What about the TGI (SW-620 colon) of the same molecule?
Answer: > 100 µM

Question: And the TGI (TK-10 renal)?
Answer: > 100 µM

Question: What about the TGI (U251 CNS) of the same molecule?
Answer: > 100 µM

Question: What about the TGI (UACC-257 melanoma) of the same molecule?
Answer: > 100 µM

Question: What about the TGI (UACC-62 melanoma) of the same molecule?
Answer: > 100 µM

Question: And the TGI (UO-31 renal)?
Answer: > 100 µM

Question: What does the source list for `CC12NC(=C(C#N)C#N)C(C#N)=C3NC(N)=C(C#N)C(=C31)Oc1ccccc12` (centres undefined)?
Answer: TGI (786-0 renal): > 100 µM; TGI (A498 renal): > 100 µM; TGI (A549 NSCLC): > 100 µM; TGI (ACHN renal): > 100 µM; TGI (BT-549 breast): > 100 µM; TGI (CAKI-1 renal): > 100 µM; TGI (CCRF-CEM leukemia): > 100 µM; TGI (COLO 205 colon): > 100 µM; TGI (DU-145 prostate): > 100 µM; TGI (EKVX NSCLC): > 100 µM; TGI (HCC-2998 colon): > 100 µM; TGI (HCT-116 colon): > 100 µM; TGI (HCT-15 colon): > 100 µM; TGI (HL-60(TB) leukemia): > 74.9 µM; TGI (HOP-62 NSCLC): > 38.3 µM; TGI (HOP-92 NSCLC): > 74.1 µM; TGI (HS 578T breast): > 100 µM; TGI (HT29 colon): > 100 µM; TGI (IGROV1 ovarian): > 100 µM; TGI (K-562 leukemia): > 100 µM; TGI (KM12 colon): > 100 µM; TGI (LOX IMVI melanoma): > 100 µM; TGI (M14 melanoma): > 100 µM; TGI (MALME-3M melanoma): > 100 µM; TGI (MCF7 breast): > 100 µM; TGI (MDA-MB-231 breast): > 100 µM; TGI (MDA-MB-435): > 100 µM; TGI (MDA-N): > 31.6 µM; TGI (MOLT-4 leukemia): > 31.6 µM; TGI (NCI-H226 lung): > 100 µM; TGI (NCI-H23 lung): > 100 µM; TGI (NCI-H460 lung): > 100 µM; TGI (NCI-H522 lung): > 100 µM; TGI (NCI/ADR-RES ovarian): > 100 µM; TGI (OVCAR-3 ovarian): > 24.9 µM; TGI (OVCAR-4 ovarian): > 100 µM; TGI (OVCAR-5 ovarian): > 100 µM; TGI (OVCAR-8 ovarian): > 100 µM; TGI (PC-3 prostate): > 100 µM; TGI (RPMI-8226 leukemia): > 100 µM; TGI (RXF 393 renal): 6.76 µM; TGI (SF-268 CNS): > 100 µM; TGI (SF-295 CNS): > 100 µM; TGI (SF-539 CNS): > 88.6 µM; TGI (SK-MEL-2 melanoma): > 80.9 µM; TGI (SK-MEL-28 melanoma): > 100 µM; TGI (SK-MEL-5 melanoma): > 22.9 µM; TGI (SK-OV-3 ovarian): > 100 µM; TGI (SN12C renal): > 100 µM; TGI (SNB-19 CNS): > 100 µM; TGI (SNB-75 CNS): > 100 µM; TGI (SR leukemia): > 100 µM; TGI (SW-620 colon): > 100 µM; TGI (T-47D breast): > 100 µM; TGI (TK-10 renal): > 100 µM; TGI (U251 CNS): > 100 µM; TGI (UACC-257 melanoma): > 100 µM; TGI (UACC-62 melanoma): > 100 µM; TGI (UO-31 renal): > 100 µM
